Patent US20030139397A1, “Arthropodicidal carboxanilides” (priority 2002, published 2003)

Tested on: tobacco budworm (Heliothis virescens)
Conditions: in vivo
Procedure: See Index Table A for compound descriptions. The following abbreviations are used in the Index Table that follows: n is normal, i is iso, Pr […], and Ph is phenyl. The abbreviation “Ex.” stands for “Example” and is followed by a number indicating in which example the compound is prepared.
Test units, each consisting of a H.I.S. (high impact styrene) tray with 16 cells were prepared. Wet filter paper and approximately 8 cm^2 of lima bean leaf were placed into twelve of the cells. A 0.5-cm layer of wheat germ diet was placed into the four remaining cells. Fifteen to twenty third-instar larvae of fall armyworm (Spodoptera frugiperda) were placed into a 230-mL (8-ounce) plastic cup. Solutions of each of the test compounds in 75:25 acetone-distilled water solvent were sprayed into the tray and cup. Spraying was accomplished by passing the tray and cup on a conveyer belt directly beneath a flat fan hydraulic nozzle which discharged the spray at a rate of 0.138 kilograms of active ingredient per hectare (about 0.13 pounds per acre) at 207 kPa (30 p.s.i.). The insects were transferred from the 230-mL cup to the H.I.S. tray (one insect per cell). The trays were covered and held at 27° C. and 50% relative humidity for 48 hours, after which time readings were taken on the twelve cells with lima bean leaves. The four remaining cells were read at 6-8 days for delayed toxicity.
The test procedure of TEST A was repeated for determining efficacy against third-instar larvae of the tobacco budworm (Heliothis virescens) except that three 230-mL (8-ounce) plastic cups with wheat germ diet were used in place of the H.I.S. tray, with each cup pre-infected with five third-instar larvae.

SMILES | mortality levels
CCCC12Cc3cc(Cl)ccc3C1=NC(C(=O)Nc1ccc(Br)cc1)=NN2 (stereo not drawn) [Compound 2] | ≥ 80%
CCCC12Cc3cc(Cl)ccc3C1=NC(C(=O)Nc1ccc(C(F)(F)F)cc1)=NN2C (stereo not drawn) [Compound 5] | ≥ 80%
CCCC12Cc3cc(Cl)ccc3C1=NC(C(=O)Nc1ccc(OC(F)(F)F)cc1)=NN2C (stereo not drawn) [Compound 6] | ≥ 80%
CCCC12Cc3cc(C(F)(F)F)ccc3C1=NC(C(=O)Nc1ccc(C(F)(F)F)cc1)=NN2C (stereo not drawn) [Compound 7] | ≥ 80%
CCCC12Cc3cc(C(F)(F)F)ccc3C1=NC(C(=O)Nc1ccc(OC(F)(F)F)cc1)=NN2C (stereo not drawn) [Compound 8] | ≥ 80%
CN1N=C(C(=O)Nc2ccc(C(F)(F)F)cc2)N=C2c3ccc(C(F)(F)F)cc3CC21C (stereo not drawn) [Compound 9] | ≥ 80%
CN1N=C(C(=O)Nc2ccc(OC(F)(F)F)cc2)N=C2c3ccc(C(F)(F)F)cc3CC21C (stereo not drawn) [Compound 10] | ≥ 80%
CCCC12Cc3cc(C(F)(F)F)ccc3C1=NC(C(=O)Nc1ccc(C(F)(F)F)cc1)=NN2C(C)=O (stereo not drawn) [Compound 11] | ≥ 80%
CCCC12Cc3cc(C(F)(F)F)ccc3C1=NC(C(=O)Nc1ccc(OC(F)(F)F)cc1)=NN2C(C)=O (stereo not drawn) [Compound 12] | ≥ 80%
O=C(Nc1ccc(OC(F)(F)F)cc1)C1=NNC2(c3ccc(F)cc3)Cc3cc(F)ccc3C2=N1 (stereo not drawn) [Compound 13] | ≥ 80%
CC12Cc3cc(F)ccc3C1=NC(C(=O)Nc1ccc(OC(F)(F)F)cc1)=NN2 (stereo not drawn) [Compound 14] | ≥ 80%
CC(C)C12Cc3cc(Cl)ccc3C1=NC(C(=O)Nc1ccc(OC(F)(F)F)cc1)=NN2 (stereo not drawn) [Compound 15] | ≥ 80%
COC(=O)N1N=C(C(=O)Nc2ccc(OC(F)(F)F)cc2)N=C2c3ccc(F)cc3CC21c1ccc(F)cc1 (stereo not drawn) [Compound 16] | ≥ 80%
CN1N=C(C(=O)Nc2ccc(OC(F)(F)F)cc2)N=C2c3ccc(F)cc3CC21C (stereo not drawn) [Compound 17] | ≥ 80%
CN1N=C(C(=O)Nc2ccc(C(F)(F)F)cc2)N=C2c3ccc(F)cc3CC21C (stereo not drawn) [Compound 19] | ≥ 80%
CCCC12Cc3cc(Cl)ccc3C1=NC(C(=O)Nc1ccc(SC(F)(F)F)cc1)=NN2 (stereo not drawn) [Compound 20] | ≥ 80%
CCCC12Cc3cc(C(F)(F)F)ccc3C1=NC(C(=O)Nc1ccc(SC(F)(F)F)cc1)=NN2 (stereo not drawn) [Compound 21] | ≥ 80%
O=C(Nc1ccc(SC(F)(F)F)cc1)C1=NNC2(c3ccc(F)cc3)Cc3cc(F)ccc3C2=N1 (stereo not drawn) [Compound 22] | ≥ 80%
